Experimental data taken from patent publication US9932637B2, “Genetic polymorphisms associated with cardiovascular disorders and drug response, methods of detection and uses thereof” (CELERA CORPORATION, priority 2003, dated 2018).

Key:
[1] = test system: patients with prior myocardial infarction (CARE study); experiment: CARE trial: pravastatin vs placebo, recurrent MI (RMI), overall and by ABCA1/NPC1/HSPG2 genotype pattern; type: in vivo, human
From the text: (§1) In order to identify genetic markers associated with acute coronary events (e.g. MI, stroke, unstable angina, congestive heart failure, etc.) or response to statin treatment for the prevention of coronary events, samples from the Cholesterol and Recurrent Events (CARE) study (a randomized multicentral double-blinded trial on secondary prevention of acute coronary events with pravastatin) (Sacks et al., 1991, Am. J. Cardiol. 68: 1436-1446) were genotyped. A well-documented myocardial infarction (MI) was one of the enrollment criteria for entry into the CARE study. Patients were enrolled in the CARE trial from 80 participating study centers. […] Patients were randomized to receive either 40 mg of pravastatin once daily or a matching placebo. The primary endpoint of the trial was death from coronary heart disease and the median duration of follow-up was 5.0 years (range, 4.0 to 6.2 years). […] Secondary endpoints of other related cardiovascular or metabolic disease events, and changes in clinical variables were also recorded in pravastatin-treated and placebo groups. All individuals included in the study had signed a written informed consent form and the study protocol was approved by the respective Institutional Review Boards (IRBs).
For genotyping SNPs in CARE patient samples, DNA was extracted from blood samples using conventional DNA extraction methods such as the QIA-amp kit from Qiagen. Genotypes were obtained on an ABI PRISM® 7900HT Sequence Detection PCR system (Applied Biosystems, Foster City, Calif.) by kinetic allele-specific PCR, similar to the method described by Germer et al. (Germer S., Holland M. J., Higuchi R. 2000, Genome Res. 10: 258-266).
The genotype data generated from the DNA of patients who participated in the CARE study was analyzed to determine the effect that pravastatin treatment had on the occurrence of RMI in patients with each of the potential genotypes (low risk, protective or high risk, non-protective) for the ABCA1 gene, the NPC1 gene and the […] gene independently.
The effect of pravastatin treatment on the occurrence of RMI in patients with each of the potential genotypes (protective, low risk genotype or non-protective, high risk genotype) for each of the ABCA1 gene, NPC1 gene, and HSPG2 gene alone, and combinations with the other two genes thereof are presented in Table 17.
This is a 50% reduction in risk over a 5 year period for RMI. […] This is an 80% reduction in risk over a 5 year period for RMI.

[2] = test system: patients with prior myocardial infarction (CARE study); experiment: CARE: risk of cardiovascular disease events associated with pravastatin by CD6 or FCAR genotype (Tables 11, 12); type: in vivo, human; details: for RR (relative risk) of RMI associated with Pravastatin: recurrent MI during 5 years follow up; for OR of RMI associated with Pravastatin, Adjusted for Age, Smoking status, Gender / OR of RMI associated with Pravastatin, Adjusted for Age, Smoking status, Gender, hypertension, BMI, diabetes, baseline LDLD and HDL / OR of RMI associated with Pravastatin, Unadjusted: placebo group as reference
From the text: as §1
In both studies the individuals homozygous for the minor allele were statistically different from heterozygous and major allele homozygous individuals in the pravastatin treated group vs. the placebo treated group. This SNP was associated with a reduced risk of an adverse coronary event in the CARE and WOSCOPS studies with RR or OR of 0.13 and 0.23 respectively in the two studies. Therefore, SNPs identified as useful for predicting RMI may also be useful for predicting increased risk for developing primary MI.
Therefore, an allele found to be associated with risk for MI, RMI, stroke, or other adverse cardiovascular event, may also be useful for predicting responsiveness to statin treatment. SNPs associated with treatment response to pravastatin may also be predictive of responsiveness of an individual to other statins as a class.

[3] = Pattern 0, pravastatin vs placebo
[4] = Pattern 2, pravastatin vs placebo
[5] = Pattern 3, pravastatin vs placebo
[6] = FCAR hCV7841642 genotype AA + AG

Q: For `CC[C@H](C)C(=O)O[C@H]1C[C@H](O)C=C2C=C[C@H](C)[C@H](CC[C@@H](O)C[C@@H](O)CC(=O)O)[C@H]21` [pravastatin], which “No RMI (number of patients)” value ([1]; All, pravastatin arm) is on record?
A: 1367

Q: And the “RMI (number of patients)” value ([1]; All, pravastatin arm)?
A: 106

Q: What about the “Risk (of RMI)” value ([1]; All, pravastatin arm) of the same compound?
A: 0.072

Q: What about the RDStatin ([1]; All, pravastatin vs placebo) of the same compound?
A: 0.023

Q: What about the RRStatin ([1]; All, pravastatin vs placebo) of the same compound?
A: 0.76

Q: And the “5 year risk of a RMI” value ([1]; CARE patients with pattern 0 genotypes receiving pravastatin)?
A: 7.9%

Q: What about the “5 year risk of a RMI” value ([1]; CARE patients with pattern 2 genotypes receiving pravastatin) of the same compound?
A: 6.8%

Q: What about the “5 year risk of a RMI” value ([1]; CARE patients with pattern 3 genotype receiving pravastatin) of the same compound?
A: 4.6%

Q: And the “reduction in risk for RMI in treatment vs. placebo groups” value ([1]; CARE, all patients)?
A: 25%

Q: And the “5 year risk of having a recurrent MI (RMI)” value ([1]; CARE, all patients who received pravastatin 40 mg once daily)?
A: 7.2%

Q: What about the “Cox Proportional Hazard Ratio (HR age-adjusted) for RMI” value ([1]; CARE, all patients, pravastatin vs placebo) of the same compound?
A: 0.75

Q: And the “Age-adjusted pravastatin effect on RMI, RR” value ([1]; High risk ABCA1 genotype)?
A: 0.9567

Q: What about the “Age-adjusted pravastatin effect on RMI, RR” value ([1]; High risk HSPG2 genotype) of the same compound?
A: 0.8097

Q: What about the “Age-adjusted pravastatin effect on RMI, RR” value ([1]; High risk NPC1 genotype) of the same compound?
A: 1.0824

Q: What about the “Age-adjusted pravastatin effect on RMI, RR” value ([1]; High risk, non-protective genotypes (ABCA1, NPC1, HSPG2)) of the same compound?
A: 1.7175

Q: And the “Age-adjusted pravastatin effect on RMI, RR” value ([1]; Low risk ABCA1, NPC1 and HSPG2 (pattern 3 genotype))?
A: 0.2399

Q: And the “Age-adjusted pravastatin effect on RMI, RR” value ([1]; Low risk ABCA1 and HSPG2 only)?
A: 1.0054

Q: What about the “Age-adjusted pravastatin effect on RMI, RR” value ([1]; Low risk ABCA1 and NPC1 only (pattern 2 genotype)) of the same compound?
A: 0.5258

Q: And the “Age-adjusted pravastatin effect on RMI, RR” value ([1]; Low risk ABCA1 genotype)?
A: 0.5883

Q: And the “Age-adjusted pravastatin effect on RMI, RR” value ([1]; Low risk HSPG2 genotype)?
A: 0.3934

Q: What about the “Age-adjusted pravastatin effect on RMI, RR” value ([1]; Low risk NPC1 and HSPG2 only) of the same compound?
A: 0.2964

Q: And the “Age-adjusted pravastatin effect on RMI, RR” value ([1]; Low risk NPC1 genotype)?
A: 0.5938

Q: And the “Age-adjusted pravastatin effect on RMI, RR” value ([1]; Low risk, protective ABCA1 only)?
A: 0.8765

Q: And the “Age-adjusted pravastatin effect on RMI, RR” value ([1]; Low risk, protective HSPG2 only)?
A: 0.2487

Q: And the “Age-adjusted pravastatin effect on RMI, RR” value ([1]; Low risk, protective NPC1 only)?
A: 0.8954

Q: What about the “No RMI (number of patients)” value ([1]; Pattern 0, pravastatin arm) of the same compound?
A: 906

Q: And the “RMI (number of patients)” value ([1]; Pattern 0, pravastatin arm)?
A: 78

Q: What about the “Risk (of RMI)” value ([1]; Pattern 0, pravastatin arm) of the same compound?
A: 0.079

Q: And the RDStatin [1, 3]?
A: 0.001

Q: And the RRStatin [1, 3]?
A: 0.98

Q: What about the “No RMI (number of patients)” value ([1]; Pattern 2, pravastatin arm) of the same compound?
A: 342

Q: What about the “RMI (number of patients)” value ([1]; Pattern 2, pravastatin arm) of the same compound?
A: 25

Q: What about the “Risk (of RMI)” value ([1]; Pattern 2, pravastatin arm) of the same compound?
A: 0.068

Q: What about the RDStatin [1, 4] of the same compound?
A: 0.057

Q: And the RRStatin [1, 4]?
A: 0.55

Q: And the “No RMI (number of patients)” value ([1]; Pattern 3, pravastatin arm)?
A: 62

Q: What about the “RMI (number of patients)” value ([1]; Pattern 3, pravastatin arm) of the same compound?
A: 3

Q: And the “Risk (of RMI)” value ([1]; Pattern 3, pravastatin arm)?
A: 0.046

Q: And the RDStatin [1, 5]?
A: 0.147

Q: What about the RRStatin [1, 5] of the same compound?
A: 0.24

Q: What about the “HR for RMI, pravastatin vs no statin” value ([1]; pattern 2 genotypes) of the same compound?
A: 0.53

Q: And the “reduction in risk over a 5 year period for RMI” value ([1]; pattern 2 genotypes)?
A: 50%

Q: And the “HR for RMI, pravastatin vs no statin” value ([1]; pattern 3 genotype)?
A: 0.2

Q: What about the “reduction in risk over a 5 year period for RMI” value ([1]; pattern 3 genotype) of the same compound?
A: 80%

Q: And the “RR or OR of adverse coronary event, pravastatin vs placebo” value ([2]; CD6 hCV2553030, homozygous for the minor allele)?
A: 0.13

Q: And the “RR (relative risk) of RMI associated with Pravastatin” value (shortened to “RR (relative risk) of RMI associated”) ([2]; CD6 hCV2553030 genotype Het (TC))?
A: 0.76

Q: And the “RR (relative risk) of RMI associated” value ([2]; CD6 hCV2553030 genotype Major hom (CC))?
A: 0.8

Q: What about the “RR (relative risk) of RMI associated” value ([2]; CD6 hCV2553030 genotype Minor hom (TT)) of the same compound?
A: 0.13

Q: What about the “RR (relative risk) of RMI associated” value ([2]; CD6 hCV2553030 recessive (TT + CC)ref) of the same compound?
A: 0.78

Q: And the “RR (relative risk) of RMI associated” value ([2]; CD6 hCV2553030 recessive (TT))?
A: 0.13

Q: What about the “OR of RMI associated with Pravastatin, Adjusted for Age, Smoking status, Gender” value [2, 6] of the same compound?
A: 0.31

Q: And the “OR of RMI associated with Pravastatin, Adjusted for Age, Smoking status, Gender, hypertension, BMI, diabetes, baseline LDLD and HDL” value [2, 6]?
A: 0.31

Q: And the “OR of RMI associated with Pravastatin, Unadjusted” value [2, 6]?
A: 0.32

Q: What about the “OR of RMI associated with Pravastatin, Adjusted for Age, Smoking status, Gender” value ([2]; FCAR hCV7841642 genotype GG) of the same compound?
A: 0.79

Q: What about the “OR of RMI associated with Pravastatin, Adjusted for Age, Smoking status, Gender, hypertension, BMI, diabetes, baseline LDLD and HDL” value ([2]; FCAR hCV7841642 genotype GG) of the same compound?
A: 0.79

Q: What about the “OR of RMI associated with Pravastatin, Unadjusted” value ([2]; FCAR hCV7841642 genotype GG) of the same compound?
A: 0.81
